Measurements: patent publication US5780441A, “Sphingoglycolipid compounds and therapeutic uses thereof” (Kirin Beer Kabushiki Kaisha, priority 1993, dated 1998)

Assays:
B16 mouse melanoma cells = experiment: Tumor growth inhibition in mice subcutaneously inoculated with B16 mouse melanoma cells; assay type: in vivo, mouse (BDF1 female); settings: 0.1 mg/kg i.v. days 1, 5, 9; maximum during 20 days
Experimental: ii) Anti-tumor effect of the compound according to the present invention on mice subcutaneously inoculated with B16 mouse melanoma cells.
Experiment was performed with BDF1 female mice (6 weeks) purchased from NIPPON SLC K.K., which were divided into groups consisting of 6 animals. […]. The subcutaneous tumor volumes [(length×width×height)/2] were measured on days 8, 12, 16 and 20 after implantation to determine the tumor growth inhibiting rate (TGIR) of each sample. TGIR was calculated from the following formula: […]
wherein C: tumor volume in the control group, and
T: tumor volume in the sample adminitered groups.
In this connection, Compounds 1-6 and 7-9 were tested in the same time, respectively.

[1] = tested on: P388 mouse leukemia cells; experiment: Life-span-prolonging (anti-tumor) effect on mice subcutaneously inoculated with P388 mouse leukemia cells; assay type: in vivo, mouse (CDF1 female); settings: 0.1 mg/kg i.v. on days 1, 5 and 9; for Survival days ave. ± s. d.: all marked ** (p < 0.01)
Experimental: i) Anti-tumor effect of the compound of the present invention on mice subcutaneously inoculated with P388 mouse leukemia cells.
Experiment was performed with CDF1 female mice (6 weeks) purchased from NIPPON SLC K.K., which were divided into groups consisting of 5 animals. […]. In this connection, lentinan and picibanil were administered intravenously on days 1, 3, 5, 7 and 9 after implantation, and sizofilan was administered subcutaneously on days 1 through 9. Statistical analysis was performed according to the Mann-Whiteney test.

[2] = tested on: mixed lymphocyte culture reaction (spleen cells of C57BL/6 and BALB/C mice); experiment: Mixed lymphocyte culture reaction (MLR); assay type: cell-based, mouse (C57BL/6 stimulator, BALB/C responder); settings: 42 hours; for MLR activating rate (%): 2520 min
Experimental: ii) Mixed lymphocyte culture reaction (MLR) of the compounds of the present invention
Spleen cells were prepared from C57BL/6 mice and treated with 50 μg/ml of mitomycin C for 30 minutes. The treated cells were used as stimulator cells, and the spleen cells of BALB/C mice as responder cells. 2×10^6 cells/ml of the both spleen cells were suspended in 10% FCS RPMI1640 as a culture medium. The above-described cells (50 μl/well) and a sample (10 μl/well) were added into wells of a round-bottomed 96 well plate, and cultured under the condition of 5% CO2 at 37° C. for 42 hours. 0.5 μCi/well of ^3 H-thymidine (^3 H-TdR) was added. After 8 hours, the cells were harvested, and the amount of uptaken ^3 H-TdR was measured by a liquid scintillation counter to calculate the ratio (%) of the uptake of ^3 H-TdR in the sample group to that in the vehicle group as the MLR activating rate.

mouse bone marrow cells = experiment: In vitro mouse bone marrow cell-proliferation-promoting effect (3H-TdR uptake); assay type: cell-based, mouse (BDF1 female); settings: 4 days; for Uptake of 3H-TdR (% of control), bone marrow cells: 5760 min
Experimental: In vitro mouse bone marrow cell-proliferation-promoting effect of the present compound
Experiment was performed with BDF1 female mice (6 weeks old) purchased from NIPPON SLC K.K. Bone marrow cells were removed from the femoral bone of mice by the conventional manner, floated on 10% FCS RPMI 1640, layered over Lympholite M, and centrifuged to give a monocyte fraction. 1×10^6 cells/ml of the monocyte fraction was suspended in 10% FCS RPMI 1640. The cell suspension (100 μl/well) and a vehicle or sample (10 μl/well) which was prepared so as to have a final level shown in Table 2 were added into a wells of round-bottomed 96 well plate, and cultured under the condition of 5% CO2 at 37° C. for 4 days. 0.5 μCi/well of ^3 H-thymidine (^3 H-TdR) was added. After 6 hours, the cells were harvested, and the amount of ^3 H-TdR uptaken into nucleus was measured by a liquid scintillation counter. The ratio of the uptake of ^3 H-TdR in the sample group to that in the vehicle group was calculated and used as the activation rate for promoting in vitro mouse bone marrow cell growth.

mouse splenic lymphocyte = experiment: In vitro mouse splenic lymphocyte-proliferation-stimulating effect (3H-TdR uptake); assay type: cell-based, mouse (BDF1 female); settings: 2 days; for Uptake of 3H-TdR (% of control), splenic lymphocytes: 2880 min
Experimental: i) In vitro mouse splenic lymphocyte growth promoting effects of the present compounds
Experiment was performed with BDF1 female mice (6 weeks old) purchased from NIPPON SLC K.K. Spleens were removed from mice, and spleen cells were brayed with slide glasses and hemolized with NH4 Cl. 2×10^6cells/ml of the spleen cells which had been hemolized were suspended in 10% FCS RPMI 1640. The cell suspension (100 μl/well) and a vehicle or sample (10 μl/well) which was prepared so as to have a final level shown in Table 3 were added into wells of a round-bottomed 96 well plate, and cultured under the condition of 5% CO2 at 37° C. for 2 days. 0.5 μCi/well of ^3 H-thymidine (^3 H-TdR) was added. After 6 hours, the cells were harvested, and the amount of ^3 H-TdR uptaken into nucleus was measured by a liquid scintillation counter. The ratio (%) of the uptake of ^3 H-TdR in the sample group to that in the vehicle group was calculated and used as the in vitro mouse splenic lymphocyte-proliferation-stimulating rate.

lethally irradiated mice = experiment: Radioprotective effect: life-span prolongation of lethally irradiated mice; assay type: in vivo, mouse (BDF1 female); settings: 0.1 mg/kg i.v. days 0, 4, 8, 9 Gy X-ray, groups of 10
Experimental: Life-span-prolonging effects of the present compounds on lethally irradiated mice.
Experiment was performed with BDF1 female mice (6 weeks old) purchased from NIPPON SLC K.K., which were divided into groups consisting of 10 animals. Mice were irradiated generally with 9 Gy of X-ray with an X-ray generating apparatus, Hitachi, MBR-1520R (radiation day: day 0). Samples at a dose of 0.1 mg/kg were administered into tail vein on days 0, 4 and 8 in order to observe the mortality of the animals for 40 days.
In the table, two experiments are separated by the broken line.

Row | Structure (SMILES) | Maximum tumor growth inhibiting rate, TGIR (%) (B16 mouse melanoma cells) | Survival days ave. ± s. d. [1] [days] | T/C (%) ([1]; survival vs vehicle) | MLR activating rate (%) ([2]; 1 × 10^0 μg/ml) | MLR activating rate (%) ([2]; 1 × 10^-1 μg/ml) | Uptake of 3H-TdR (% of control), bone marrow cells (mouse bone marrow cells; 10^-1 μg/ml) | Uptake of 3H-TdR (% of control), bone marrow cells (mouse bone marrow cells; 10^-2 μg/ml) | Uptake of 3H-TdR (% of control), splenic lymphocytes (mouse splenic lymphocyte; 10^0 μg/ml) | Uptake of 3H-TdR (% of control), splenic lymphocytes (mouse splenic lymphocyte; 10^-1 μg/ml) | Uptake of 3H-TdR (% of control), splenic lymphocytes (mouse splenic lymphocyte; 10^-2 μg/ml) | Uptake of 3H-TdR (% of control), splenic lymphocytes (mouse splenic lymphocyte; 10^-3 μg/ml) | Number of surviving mice (lethally irradiated mice; day 15, 0.1 mg/kg) [mice] | Number of surviving mice (lethally irradiated mice; day 20, 0.1 mg/kg) [mice] | Number of surviving mice (lethally irradiated mice; day 25, 0.1 mg/kg) [mice] | Number of surviving mice (lethally irradiated mice; day 30, 0.1 mg/kg) [mice] | Number of surviving mice (lethally irradiated mice; day 35, 0.1 mg/kg) [mice] | Number of surviving mice (lethally irradiated mice; day 40, 0.1 mg/kg) [mice] | Number of surviving mice (lethally irradiated mice; day 10) [mice] | also measured
1 | CCCCCCCCCCCCCCCCCCCCCC[C@@H](O)C(=O)N[C@@H](CO[C@H]1O[C@H](CO)[C@H](O)[C@H](O[C@H]2O[C@H](CO)[C@H](O)[C@H](O)[C@H]2NC(C)=O)[C@H]1O[C@H]1O[C@H](CO)[C@@H](O)[C@H](O)[C@H]1O)[C@H](O)[C@H](O)CCCCCCCCCCCCCC [Compound 6, O-(N-acetyl-2-amino-2-deoxy-α-D-galactopyranosyl)-(1→3)-O-[α-D-glucopyranosyl-(1→2)]-O-α-D-galactopyranosyl-(1→1)-(2S,3S,4R)-2-amino-N-[(R)-2-hydroxytetracosanoyl]-1,3,4-octadecanetriol] | 91.2 | 15.8 ± 1.1 | 123 | 228 | 194 | 431 % of control | 142 % of control | 883 % of control | 979 % of control | 649 % of control | 543 % of control | 10 | 8 | 8 | 8 | 8 | 8 | – | Number of surviving mice (lethally irradiated mice; day 10, 0.1 mg/kg): 10 mice
2 | CCCCCCCCCCCCCCCCCCCCCC[C@@H](O)C(=O)N[C@@H](CO[C@H]1O[C@H](CO)[C@H](O)[C@H](O[C@H]2O[C@H](CO)[C@H](O)[C@H](O)[C@H]2NC(C)=O)[C@H]1O[C@H]1O[C@H](CO)[C@@H](O)[C@H](O)[C@H]1O)[C@H](O)[C@H](O)CCCCCCCCCCCC(C)C [Compound 5, O-(N-acetyl-2-amino-2-deoxy-α-D-galactopyranosyl)-(1→3)-O-[α-D-glucopyranosyl-(1→2)]-O-α-D-galactopyranosyl-(1→1)-(2S,3S,4R)-2-amino-N-[(R)-2-hydroxytetracosanoyl]-16-methyl-1,3,4-heptadecanetriol] | 86.8 | 15.2 ± 1.1 | 119 | 189 | 176 | 330 % of control | 283 % of control | 889 % of control | 764 % of control | 612 % of control | 592 % of control | 8 | 7 | 7 | 7 | 7 | 7 | 10 | –
3 | CCCCCCCCCCCCCCCCCCCCCC[C@@H](O)C(=O)N[C@@H](CO[C@H]1O[C@H](CO)[C@H](O)[C@H](O[C@H]2O[C@H](CO)[C@H](O)[C@H](O)[C@H]2NC(C)=O)[C@H]1O[C@H]1O[C@H](CO)[C@@H](O)[C@H](O)[C@H]1O)[C@H](O)[C@H](O)CCCCCCCCCCCCC [Compound 2, O-(N-acetyl-2-amino-2-deoxy-α-D-galactopyranosyl)-(1→3)-O-[α-D-glucopyranosyl-(1→2)]-O-α-D-galactopyranosyl-(1→1)-(2S,3S,4R)-2-amino-N-[(R)-2-hydroxytetracosanoyl]-1,3,4-heptadecanetriol] | 82.6 | 15.8 ± 0.5 | – | – | – | – | – | – | – | – | – | – | – | – | – | – | – | 10 | response vs control in vivo at 0.1 mg/kg ([1]; Mus musculus, P388, iv, survival vs vehicle, read-out: T/C (%)): 123%; activity at 1 µg/mL ([2]; Mus musculus, Lymphocyte, 1 × 10^0 μg/ml, read-out: MLR activating rate (%)): 213%; activity at 0.1 µg/mL ([2]; Mus musculus, Lymphocyte, 1 × 10^-1 μg/ml, read-out: MLR activating rate (%)): 158%; activity at 0.1 µg/mL (mouse bone marrow cells; Mus musculus, Bone marrow cell, 96 h, 10^-1 μg/ml, read-out: Uptake of 3H-TdR (% of control), bone marrow cells): 268%; activity at 0.01 µg/mL (mouse bone marrow cells; Mus musculus, Bone marrow cell, 96 h, 10^-2 μg/ml, read-out: Uptake of 3H-TdR (% of control), bone marrow cells): 276%; activity at 1 µg/mL (mouse splenic lymphocyte; Mus musculus, Splenic lymphocyte, 48 h, 10^0 μg/ml, read-out: Uptake of 3H-TdR (% of control), splenic lymphocytes): 890%; activity at 0.1 µg/mL (mouse splenic lymphocyte; Mus musculus, Splenic lymphocyte, 48 h, 10^-1 μg/ml, read-out: Uptake of 3H-TdR (% of control), splenic lymphocytes): 735%; activity at 0.01 µg/mL (mouse splenic lymphocyte; Mus musculus, Splenic lymphocyte, 48 h, 10^-2 μg/ml, read-out: Uptake of 3H-TdR (% of control), splenic lymphocytes): 508%; activity at 0.001 µg/mL (mouse splenic lymphocyte; Mus musculus, Splenic lymphocyte, 48 h, 10^-3 μg/ml, read-out: Uptake of 3H-TdR (% of control), splenic lymphocytes): 270%; Number of surviving mice (lethally irradiated mice; day 15): 10 mice; Number of surviving mice (lethally irradiated mice; day 20): 10 mice; Number of surviving mice (lethally irradiated mice; day 25): 9 mice; Number of surviving mice (lethally irradiated mice; day 30): 9 mice; Number of surviving mice (lethally irradiated mice; day 35): 9 mice; Number of surviving mice (lethally irradiated mice; day 40): 9 mice
